The values below come from US6339045B1, “N-(unsubstituted or substituted)-4-substituted-6-(unsubstituted or substituted)phenoxy-2-pyridinecarboxamides or thiocarboxamides, processes for producing the same, and herbicides” (Kureha Kagaku Kogyo Kabushiki Kaisha, priority 1995, dated 2002).

What all share (experiment): Herbicidal effect by foliage and soil treatment
Holding throughout (assay type): in vivo
Conditions in all cases: 10 g ai/10a, evaluated after 14 days

The subject of test [1] is velvetleaf (Abutilon theophrasti). From the text: (§1) Experiment for Determination of Herbicidal Effect by Foliate and Soil Treatment Seeds of redroot pigweed (Amaranthus retroflexus), common blackjack (Bidens pilosa), kediock (Sinapis arvensis), common chickweed (Stellaria media), sicklepod (Cassia obtusifolia), black nightshade (Solanum nigrum), velvetleaf (Abutilon theophrasti), field bindweed (Convolvulus arvensis), wild chamomile (Matricaria chamomilla), cleavers (Galium aparine) and […] (Veronica hederaefolia), were uniformly sowed over a horticultural granular soil (produced by KUREHA CHEMICAL INDUSTRY, CO., LTD.; the same soil was used hereinafter) filled in a planter. The planter was placed in a greenhouse (maintained at 19 to 25° C.) to sprout these plants. Two seedlings of each sprouted plant were transplanted to a 10 cm-diameter pot filled with the horticultural granular soil and cultivated in the greenhouse (maintained at 19 to 25° C.) until reaching a cotyledonal to bifoliate period suited to the foliage and soil treatment. […] Next, additional amounts of Tween 20 and water were added to the obtained solution or suspension to produce a test solution. The plants prepared in the above (1) were placed within a frame having a predetermined inside area, and uniformly sprayed with the test solution using a sprayer such that the amount of each compound applied was controlled to a predetermined level. The plants sprayed with the test solution were placed again in the greenhouse (maintained at 19 to 25° C.) and cultivated therein. After 14 days, the degree of growth of each plant cultivated in the treated region was compared with that of plant cultivated in non-treated region, and evaluated according to the following ratings. The herbicidal activity of each test compound was represented by these ratings

The test system of test [2] is field bindweed (Convolvulus arvensis).
Description: as §1

The test system of test [3] is cleavers (Galium aparine).
Description: as §1

Test [4] relates to ivyleafspeedwell (Veronica hederaefolia).
Description: as §1

In test [5] the test system is black nightshade (Solanum nigrum).
Description: as §1

In test [6] the test system is common chickweed (Stellaria media).
Description: as §1

For test [7], the system named is sicklepod (Cassia obtusifolia).
Description: as §1

Test [8] has as its system redroot pigweed (Amaranthus retroflexus).
Description: as §1

Test [9] concerns common blackjack (Bidens pilosa).
Description: as §1

The test system of test [10] is wild chamomile (Matricaria chamomilla).
Description: as §1

Test [11] concerns kediock (Sinapis arvensis).
Description: as §1

For the compound `COc1cc(Oc2cccc(C(F)(F)F)c2)nc(C(=O)NCCCl)c1` [Compound I-35], the “herbicidal activity rating, AT (Abutilon theophrasti)” value in test [1] was 5 (percentage of weeds killed was not less than 80%). Moreover, in test [2], the “herbicidal activity rating, CA (Convolvulus arvensis)” value (“herbicidal activity rating, CA” for short) is listed as 5 (percentage of weeds killed was not less than 80%). Besides, the “herbicidal activity rating, GA (Galium aparine)” value (“herbicidal activity rating, GA” for short) in [3] is recorded as 5 (percentage of weeds killed was not less than 80%). Besides, the “herbicidal activity rating, VH (Veronica hederaefolia)” value (“herbicidal activity rating, VH” for short) in [4] was 5 (percentage of weeds killed was not less than 80%). For the same compound, in test [5], the “herbicidal activity rating, SN (Solanum nigrum)” value (“herbicidal activity rating, SN” for short) is 5 (percentage of weeds killed was not less than 80%). In addition, the “herbicidal activity rating, SM (Stellaria media)” value (“herbicidal activity rating, SM” for short) in test [6] was 5 (percentage of weeds killed was not less than 80%). Also, the “herbicidal activity rating, CO (Cassia obtusifolia)” value (“herbicidal activity rating, CO” for short) in test [7] is reported as 5 (percentage of weeds killed was not less than 80%). In [8], the “herbicidal activity rating, AR (Amaranthus retroflexus)” value (“herbicidal activity rating, AR” for short) is on record as 5 (percentage of weeds killed was not less than 80%). Moreover, in test [9], the “herbicidal activity rating, BP (Bidens pilosa)” value (“herbicidal activity rating, BP” for short) is on record as 5 (percentage of weeds killed was not less than 80%). Further, in [10], the “herbicidal activity rating, MC (Matricaria chamomilla)” value (“herbicidal activity rating, MC” for short) is recorded as 5 (percentage of weeds killed was not less than 80%). The “herbicidal activity rating, SA (Sinapis arvensis)” value (“herbicidal activity rating, SA” for short) in [11] was 5 (percentage of weeds killed was not less than 80%).
Consider `CCCCNC(=O)c1cc(OC)cc(Oc2cccc(C(F)(F)F)c2)n1` [Compound I-36], for which, in test [1], the “herbicidal activity rating, AT (Abutilon theophrasti)” value is 4 (percentage of weeds killed was not less than 60% and less than 80%). In test [2], the “herbicidal activity rating, CA” value was 5 (percentage of weeds killed was not less than 80%). In test [3], the “herbicidal activity rating, GA” value is reported as 5 (percentage of weeds killed was not less than 80%). Also, the “herbicidal activity rating, VH” value in [4] is listed as 5 (percentage of weeds killed was not less than 80%). In addition, the “herbicidal activity rating, SN” value in test [5] was 5 (percentage of weeds killed was not less than 80%). The “herbicidal activity rating, SM” value in test [6] is reported as 5 (percentage of weeds killed was not less than 80%). Also, the “herbicidal activity rating, CO” value in test [7] was 5 (percentage of weeds killed was not less than 80%). Moreover, in test [8], the “herbicidal activity rating, AR” value is listed as 5 (percentage of weeds killed was not less than 80%). For the same compound, the “herbicidal activity rating, BP” value in [9] is given as 5 (percentage of weeds killed was not less than 80%). Besides, the “herbicidal activity rating, MC” value in test [10] was 5 (percentage of weeds killed was not less than 80%). For the same compound, the “herbicidal activity rating, SA” value in test [11] is listed as 5 (percentage of weeds killed was not less than 80%).
Take `COc1cc(Oc2cccc(C(F)(F)F)c2)nc(C(=O)NC(C)C)c1` [Compound I-37, N-(i-propyl)-4-methoxy-6-{3-(trifluoromethyl)phenoxy}-2-pyridine carboxamide]: the “herbicidal activity rating, AT (Abutilon theophrasti)” value in [1] is 4 (percentage of weeds killed was not less than 60% and less than 80%). The “herbicidal activity rating, CA” value in test [2] is recorded as 5 (percentage of weeds killed was not less than 80%). Besides, the “herbicidal activity rating, GA” value in [3] is on record as 5 (percentage of weeds killed was not less than 80%). The “herbicidal activity rating, VH” value in [4] is reported as 5 (percentage of weeds killed was not less than 80%). In addition, the “herbicidal activity rating, SN” value in test [5] was 5 (percentage of weeds killed was not less than 80%). In addition, the “herbicidal activity rating, SM” value in [6] is reported as 5 (percentage of weeds killed was not less than 80%). Also, the “herbicidal activity rating, CO” value in test [7] was 5 (percentage of weeds killed was not less than 80%). Also, in [8], the “herbicidal activity rating, AR” value was 5 (percentage of weeds killed was not less than 80%). The “herbicidal activity rating, BP” value in test [9] is 5 (percentage of weeds killed was not less than 80%). Besides, the “herbicidal activity rating, MC” value in [10] is 5 (percentage of weeds killed was not less than 80%). Besides, the “herbicidal activity rating, SA” value in [11] is on record as 5 (percentage of weeds killed was not less than 80%).
On to `COc1cc(Oc2cccc(OC(F)F)c2)nc(C(=O)NC(C)C)c1` [Compound I-38], for which the “herbicidal activity rating, AT (Abutilon theophrasti)” value in [1] was 4 (percentage of weeds killed was not less than 60% and less than 80%). Moreover, the “herbicidal activity rating, CA” value in [2] was 4 (percentage of weeds killed was not less than 60% and less than 80%). Besides, the “herbicidal activity rating, GA” value in [3] is 5 (percentage of weeds killed was not less than 80%). For the same compound, in [4], the “herbicidal activity rating, VH” value is listed as 5 (percentage of weeds killed was not less than 80%). In [5], the “herbicidal activity rating, SN” value is 5 (percentage of weeds killed was not less than 80%). Besides, the “herbicidal activity rating, SM” value in test [6] was 4 (percentage of weeds killed was not less than 60% and less than 80%). The “herbicidal activity rating, CO” value in test [7] is 4 (percentage of weeds killed was not less than 60% and less than 80%). Besides, in [8], the “herbicidal activity rating, AR” value was 5 (percentage of weeds killed was not less than 80%). The “herbicidal activity rating, BP” value in test [9] was 2 (percentage of weeds killed was not less than 20% and less than 40%). For the same compound, the “herbicidal activity rating, MC” value in [10] is 4 (percentage of weeds killed was not less than 60% and less than 80%). Also, the “herbicidal activity rating, SA” value in test [11] is 5 (percentage of weeds killed was not less than 80%).
As for `COc1cc(Oc2cccc(OC(F)(F)F)c2)nc(C(=O)NC(C)C)c1` [Compound I-39], the “herbicidal activity rating, AT (Abutilon theophrasti)” value in [1] is 5 (percentage of weeds killed was not less than 80%). For the same compound, the “herbicidal activity rating, CA” value in [2] is 5 (percentage of weeds killed was not less than 80%). For the same compound, in test [3], the “herbicidal activity rating, GA” value is on record as 5 (percentage of weeds killed was not less than 80%). Further, the “herbicidal activity rating, VH” value in test [4] is on record as 5 (percentage of weeds killed was not less than 80%). The “herbicidal activity rating, SN” value in test [5] is recorded as 5 (percentage of weeds killed was not less than 80%). In [6], the “herbicidal activity rating, SM” value was 5 (percentage of weeds killed was not less than 80%). The “herbicidal activity rating, CO” value in test [7] was 5 (percentage of weeds killed was not less than 80%). Moreover, the “herbicidal activity rating, AR” value in [8] is recorded as 5 (percentage of weeds killed was not less than 80%). The “herbicidal activity rating, BP” value in test [9] is 3 (percentage of weeds killed was not less than 40% and less than 60%). Further, the “herbicidal activity rating, MC” value in test [10] is 4 (percentage of weeds killed was not less than 60% and less than 80%). For the same compound, the “herbicidal activity rating, SA” value in test [11] was 5 (percentage of weeds killed was not less than 80%).
